According to patent US5162499A, “Synthetic peptides for the treatment of AIDS” (Heterocyclic Research, Inc., priority 1991, dated 1992):

Tests used:
[1] = test system: Human monocytes; assay: Chemotaxis assay (monocyte migration in agarose plates); type: cell-based; parameters: key: (cells migrating to attractant − cells migrating to buffer)/10
From the text: Briefly, monocyte migration is directly observed in a chemotaxis chamber.
A comparative study comparing the chemotactic activity of the peptides of the invention with the chemotactic activity of peptide T (C. B. Pert et al., Proc. Natl. Acad. Sci., Vol. 83, pp. 9254-9258, 1986) was undertaken. […] Human monocytes were obtained by the known technique of layering heparinized blood on FICOLL-HYPAQUE differential dentrifugation medium in a centrifuge tube and spinning to separate the red blood cells from plasma and the monolayered monocytes. The monocytes were pipetted off and then washed with physiological saline.
The agarose plates were also prepared in accordance with conventional methods. Agarose type II (0.4 g), available from Sigma Chemical, and LITEX gelatin (0.3 g) were combined and heated until the gelatin was thoroughly dissolved. RMPI-HANK buffer (4 ml), distilled water (15.2 ml) and saturated NaHCO3 solution (0.8 ml) were then added to the agarose gelatin and mixed to homogeneity. 5 ml aliquots of the resulting solution were poured into plastic petri dishes (FALCON 55 mm) and allowed to gel. After the agarose has sufficiently hardened, wells, 3 mm in diameter were cut in the agarose, such that each dish had six rows of wells radiating from the center of the dish, each row containing three wells spaced apart by a distance of 3 mm. Thus, each plate was used to assay two test samples in triplicate. 8 ul of the test peptide (in 120 mM HEPES buffer) was placed on the outermost well, 8 ul of monocyte cell solution was placed in the center well and 8 ul of RPMI-HANKS buffer was placed in the innermost well. The migration of monocytes was visually observed and the number of migrating cells was determined. A chemotactic index was calculated as the number of cells which migrated toward the attractant, i.e., test peptide or control, less the number of cells that migrated towards the buffer divided by 10. Formyl-Met-Leu-Phe (FMLP) and (D-Ala)Peptide-T were used as positive control and HEPES buffer and Leu-Gly-Gly were used as negative controls.

[2] = test system: binding of HIV to T4 cells; conditions: reported by Pert et al., PNAS 1986; cited from earlier work
[3] = attractant concentration 10^-9 M
[4] = attractant concentration 10^-10 M
[5] = attractant concentration 10^-11 M

Row | Substance | Chemotactic Index [1, 3] | Chemotactic Index [1, 4] | Chemotactic Index [1, 5] | Blocking of the binding of HIV to T4 cells (in words) [2]
1 | H-SER-SER-ASN-TYR-MET (SSNYM; printed: SER-SER-ASN-TYR-MET) [Example 8, linear pentapeptide] | 5.0 | 4.8 | 6.0 | –
2 | Ala-Ser-Thr-Thr-Thr-Asn-Tyr-Thr [peptide T] | – | – | – | block the binding of HIV to T4 cells
3 | ALA--SER--SER--SER--ASN--TYR--MET (ASSSNYM; printed: ALA--SER--SER--SER--ASN--TYR--MET) [Example 6, linear heptapeptide] | 4.9 | 4.7 | 5.1 | –
4 | SER--SER--SER--ASN--TYR--MET (SSSNYM; printed: SER--SER--SER--ASN--TYR--MET) [Example 7, linear hexapeptide] | 4.6 | 5.1 | 5.3 | –
